Measured values from the supplement of paper PMC11061612.

Experiments:
Assay in all cases: Bliss excess, mean over the matrix (fraction); higher = more synergy
[1] = system: 639-V (Bladder Carcinoma)
In short: (§1)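 Bliss excess equals the observed combination effect minus the expected value EA + EB − EA·EB, where EA and EB are the effects of each agent alone. Combination Emax is the second-highest inhibition within the matrix. Inhibition was scaled from CellTiter-Glo 2.0 luminescence, with 0 set by vehicle wells and 1 by blank wells, after 72 hours of two-drug dosing of cells plated in 1536-well plates.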

[2] = system: CTB-1 (B-Cell Non-Hodgkin's Lymphoma)
In short: as §1

[3] = system: EN (Endometrial Carcinoma)
In short: as §1

[4] = system: HARA (Squamous Cell Lung Carcinoma)
In short: as §1

[5] = system: HMV-II (Melanoma)
In short: as §1

[6] = system: HO-1-u-1 (Oral Cavity Carcinoma)
In short: as §1

[7] = system: K5 (Thyroid Gland Carcinoma)
In short: as §1

[8] = system: LoVo (Colorectal Carcinoma)
In short: as §1

[9] = system: Mewo (Melanoma)
In short: as §1

[10] = system: NB14 (Neuroblastoma)
In short: as §1

[11] = system: NCI-H2461 (Mesothelioma)
In short: as §1

[12] = system: NCI-H2795 (Mesothelioma)
In short: as §1

[13] = system: NCI-H28 (Mesothelioma)
In short: as §1

[14] = system: NCI-H69 (Small Cell Lung Carcinoma)
In short: as §1

[15] = system: OVCAR-8 (Ovarian Carcinoma)
In short: as §1

[16] = system: PCI-30 (Head and Neck Carcinoma)
In short: as §1

[17] = system: RPMI-6666 (Non-Cancerous)
In short: as §1

[18] = system: SH-4 (Melanoma)
In short: as §1

[19] = system: SK-OV-3 (Ovarian Carcinoma)
In short: as §1

[20] = system: SW1271 (Small Cell Lung Carcinoma)
In short: as §1

| Structure (SMILES) | Bliss excess [1] | Bliss excess [2] | Bliss excess [3] | Bliss excess [4] | Bliss excess [5] | Bliss excess [6] | Bliss excess [7] | Bliss excess [8] | Bliss excess [9] | Bliss excess [10] | Bliss excess [11] | Bliss excess [12] | Bliss excess [13] | Bliss excess [14] | Bliss excess [15] | Bliss excess [16] | Bliss excess [17] | Bliss excess [18] | Bliss excess [19] | Bliss excess [20] |
| --- | --- | --- | --- | --- | --- | --- | --- | --- | --- | --- | --- | --- | --- | --- | --- | --- | --- | --- | --- | --- |
| COc1cccc2c1C(=O)c1c(O)c3c(c(O)c1C2=O)C[C@@](O)(C(=O)CO)C[C@@H]3O[C@H]1C[C@H](N)[C@H](O)[C@H](C)O1 [Doxorubicin] + Cc1cc2ncnn2cc1Nc1ncc2c(n1)n(C1CCOCC1)c(=O)n2C [AZD7648] (first compound max 1 µM, 7x7, partner max 10 µM) | 0.117 | 0.077 | 0.0108 | 0.0915 | 0.062 | 0.0091 | 0.0319 | 0.0105 | 0.0082 | 0.0203 | -0.0108 | 0.0227 | -0.0177 | 0.0064 | 0.061 | 0.006 | 0.103 | 0.024 | -0.0049 | 0.0452 |
| CC1(C)CCC(CN2CCN(c3ccc(C(=O)NS(=O)(=O)c4ccc(NCC5CCOCC5)c([N+](=O)[O-])c4)c(Oc4cnc5[nH]ccc5c4)c3)CC2)=C(c2ccc(Cl)cc2)C1 [Venetoclax] + Cn1cnc2c(F)c(Nc3ccc(Br)cc3Cl)c(C(=O)NOCCO)cc21 [Selumetinib] (first compound max 1 µM, 7x7, partner max 3 µM) | 0.0346 | -0.0475 | -0.0325 | -0.0084 | -0.0317 | -0.0352 | -0.0402 | -0.0458 | -0.0252 | -0.0221 | -0.0175 | -0.0354 | -0.0449 | -0.105 | -0.0373 | -0.0429 | 0.0306 | -0.0306 | -0.0624 | -0.0255 |
| Cc1cc2ncnn2cc1Nc1ncc2c(n1)n(C1CCOCC1)c(=O)n2C [AZD7648] + CN(C)CCCOc1ccc(-c2ccc3ncc4c(c3c2)n(C2CCOCC2)c(=O)n4C)cn1 [AZD0156] (first compound max 10 µM, 7x7, partner max 1 µM) | 0.0192 | -0.0485 | -0.0396 | 0.0352 | -0.0169 | -0.0542 | -0.0226 | -0.0469 | 0.0033 | 0.0053 | -0.0442 | -0.025 | -0.0195 | -0.044 | 0.0245 | -0.0411 | -0.101 | 0.0077 | -0.0289 | 0.0567 |
| COc1cccc(OCCCN)c1-c1cc(Nc2cnc(C#N)cn2)n[nH]1 [Prexasertib] + Cc1cc2ncnn2cc1Nc1ncc2c(n1)n(C1CCOCC1)c(=O)n2C [AZD7648] (first compound max 1 µM, 7x7, partner max 10 µM) | -0.0051 | -0.0352 | -0.0753 | -0.0085 | 0.0203 | 0.0035 | -0.0405 | -0.0687 | -0.0079 | -0.0047 | -0.0428 | -0.0556 | -0.0397 | 0.0337 | 0.0125 | -0.0227 | -0.0261 | -0.0545 | -0.0686 | -0.0014 |
| CCc1c2c(nc3ccc(O)cc13)-c1cc3c(c(=O)n1C2)COC(=O)[C@]3(O)CC [SN-38] + CN(C)CCCOc1ccc(-c2ccc3ncc4c(c3c2)n(C2CCOCC2)c(=O)n4C)cn1 [AZD0156] (first compound max 0.3 µM, 7x7, partner max 1 µM) | 0.068 | -0.0393 | -0.0346 | 0.112 | -0.0108 | 0.0393 | -0.0797 | 0.0135 | -0.0722 | 0.0191 | -0.0236 | 0.0334 | -0.0839 | -0.0197 | 0.0058 | -0.0044 | -0.0196 | -0.0552 | -0.0132 | 0.0025 |
| C=CCn1c(=O)c2cnc(Nc3ccc(N4CCN(C)CC4)cc3)nc2n1-c1cccc(C(C)(C)O)n1 [AZD1775] + O=C(c1cc(Cc2n[nH]c(=O)c3ccccc23)ccc1F)N1CCN(C(=O)C2CC2)CC1 [Olaparib] (first compound max 1 µM, partner max 10 µM) | 0.0085 | -0.0921 | -0.0469 | -0.0325 | -0.0279 | -0.0521 | -0.0175 | -0.0313 | -0.0237 | -0.0306 | -0.0561 | -0.0182 | -0.0568 | -0.0166 | -0.0303 | -0.0579 | -0.0373 | -0.0882 | -0.0465 | -0.0488 |
| Cc1cc2ncnn2cc1Nc1ncc2c(n1)n(C1CCOCC1)c(=O)n2C [AZD7648] + CCN(CCO)CCCOc1ccc2c(Nc3cc(CC(=O)Nc4cccc(F)c4)[nH]n3)ncnc2c1 [AZD2811] (first compound max 10 µM, 7x7, partner max 1 µM) | 0.0219 | -0.0578 | -0.0671 | 0.017 | -0.0368 | 0.0258 | 0.0013 | -0.0126 | 0.0082 | -0.0603 | -0.0105 | 0.009 | 0.0016 | 0.0296 | 0.0473 | -0.0267 | 0.036 | -0.0059 | -0.0193 | -0.0081 |
| CC1(C)CCC(CN2CCN(c3ccc(C(=O)NS(=O)(=O)c4ccc(NCC5CCOCC5)c([N+](=O)[O-])c4)c(Oc4cnc5[nH]ccc5c4)c3)CC2)=C(c2ccc(Cl)cc2)C1 [Venetoclax] + CN(C)CCCOc1ccc(-c2ccc3ncc4c(c3c2)n(C2CCOCC2)c(=O)n4C)cn1 [AZD0156] (first compound max 1 µM, 7x7, partner max 1 µM) | 0.02 | -0.024 | -0.0832 | -0.0121 | 0.0134 | -0.003 | -0.0635 | -0.0251 | -0.0483 | -0.0017 | -0.0535 | 0.0332 | -0.0547 | 0.002 | -0.0089 | -0.0665 | -0.0231 | -0.0087 | -0.0637 | -0.0283 |
| C=CCn1c(=O)c2cnc(Nc3ccc(N4CCN(C)CC4)cc3)nc2n1-c1cccc(C(C)(C)O)n1 [AZD1775] + C[C@@H]1COCCN1C2=NC(=NC(=C2)C3(CC3)[S@](=N)(=O)C)C4=C5C=CNC5=NC=C4 [AZD6738] (first compound max 1 µM, partner max 10 µM) | 0.0455 | -0.0464 | – | -0.0239 | -0.0327 | 0.0263 | -0.0453 | -0.0212 | 0.026 | 0.0462 | -0.081 | -0.0134 | 0.0066 | 0.0962 | 0.0818 | 0.0406 | -0.0165 | -0.0746 | -0.0067 | -0.0474 |
| COc1cccc(OCCCN)c1-c1cc(Nc2cnc(C#N)cn2)n[nH]1 [Prexasertib] + C[C@@H]1COCCN1C2=NC(=NC(=C2)C3(CC3)[S@](=N)(=O)C)C4=C5C=CNC5=NC=C4 [AZD6738] (first compound max 1 µM, 7x7, partner max 10 µM) | 0.0838 | -0.091 | -0.0416 | -0.0117 | 0.0359 | -0.0013 | 0.0037 | -0.0296 | -0.0403 | 0.0092 | -0.0344 | 0.0361 | -0.0062 | -0.0356 | -0.0151 | 0.003 | -0.0467 | -0.0786 | -0.0412 | -0.0337 |
| Cc1cc2ncnn2cc1Nc1ncc2c(n1)n(C1CCOCC1)c(=O)n2C [AZD7648] + C[C@@H]1COCCN1C2=NC(=NC(=C2)C3(CC3)[S@](=N)(=O)C)C4=C5C=CNC5=NC=C4 [AZD6738] (first compound max 10 µM, 7x7, partner max 10 µM) | 0.0317 | 0.0098 | -0.0485 | -0.0073 | 0.0134 | -0.0014 | 0.0129 | -0.0058 | -0.0217 | -0.0026 | -0.0188 | 0.0603 | 0.081 | -0.0348 | 0.0012 | -0.0101 | -0.0048 | -0.0043 | 0.0411 | 0.0274 |
| CCc1c2c(nc3ccc(O)cc13)-c1cc3c(c(=O)n1C2)COC(=O)[C@]3(O)CC [SN-38] + O=C(c1cc(Cc2n[nH]c(=O)c3ccccc23)ccc1F)N1CCN(C(=O)C2CC2)CC1 [Olaparib] (first compound max 0.3 µM, 7x7, partner max 10 µM) | 0.0917 | 0.0546 | -0.0377 | 0.124 | 0.0175 | 0.0415 | 0.0566 | 0.0556 | 0.008 | 0.0063 | 0.0234 | 0.08 | 0.0588 | -0.0035 | – | 0.0572 | 0.0394 | 0.0956 | 0.0571 | 0.129 |
| CN(C)CCCOc1ccc(-c2ccc3ncc4c(c3c2)n(C2CCOCC2)c(=O)n4C)cn1 [AZD0156] + C[C@@H]1COCCN1C2=NC(=NC(=C2)C3(CC3)[S@](=N)(=O)C)C4=C5C=CNC5=NC=C4 [AZD6738] (first compound max 1 µM, 7x7, partner max 10 µM) | 0.0109 | -0.063 | -0.0073 | 0.0257 | -0.0018 | 0.0189 | -0.0074 | -0.0191 | -0.0365 | -0.0448 | -0.0664 | -0.0643 | -0.0606 | -0.0233 | 0.0296 | 0.0081 | -0.0187 | 0.0052 | -0.015 | 0.0015 |
| Cc1c2c(nn1C)CSCc1cc(n(C)n1)CSc1cc(c3ccccc3c1)OCCCc1c(C(=O)O)n(C)c3c-2c(Cl)ccc13 [AZD5991] + CCN(CCO)CCCOc1ccc2c(Nc3cc(CC(=O)Nc4cccc(F)c4)[nH]n3)ncnc2c1 [AZD2811] (first compound max 1 µM, 7x7, partner max 1 µM) | 0.0649 | -0.0167 | 0.0145 | 0.0761 | – | 0.0569 | -0.0431 | -0.0257 | -0.0173 | 0.0085 | 0.0185 | 0.041 | 0.0191 | 0.0092 | 0.0412 | 0.0256 | – | 0.0439 | 0.0018 | -0.0403 |
| Cc1c2c(nn1C)CSCc1cc(n(C)n1)CSc1cc(c3ccccc3c1)OCCCc1c(C(=O)O)n(C)c3c-2c(Cl)ccc13 [AZD5991] + CN(C)CCCOc1ccc(-c2ccc3ncc4c(c3c2)n(C2CCOCC2)c(=O)n4C)cn1 [AZD0156] (first compound max 1 µM, 7x7, partner max 1 µM) | -0.0065 | -0.0457 | -0.024 | – | -0.033 | 0.04 | -0.0277 | -0.0005 | -0.019 | 0.0091 | 0.0373 | 0.0192 | -0.0024 | -0.0614 | 0.0408 | 0.0079 | -0.0605 | 0.0088 | 0.0106 | 0.0034 |
